Measured values as given in paper PMC8273159, “In Vivo Behavior of the Antibacterial Peptide Cyclo[RRRWFW], Explored Using a 3-Hydroxychromone-Derived Fluorescent Amino Acid” (Frontiers in Chemistry, 2021).
Values after ≈ are worked out from the molar mass of the structure shown. Numbered stars: 1 amine (or outer) side, 2 acyl side, 3 side chain; on linkers, the order of the positions; unused ones are H or OH. Square brackets hold non-standard residues; d marks the D form. Peptide text beside a SMILES is read from it. X1 = O=C([C@H](Cc1ccc2oc(-c3ccco3)c(O)c(=O)c2c1)N[*:1])[*:2]

Experiments:
[1] = system: Bacillus spizizenii (DSM 347); assay type: cell-based; conditions: DSM 347, 20 h
Experimental: (§1) Bacillus spizizenii (DSM 347) and Escherichia coli (DSM 1116) were purchased from the German Collection of Microorganisms and Cell Cultures. The bacterial strains were maintained frozen at −80°C using a bacterial Cryobank System (Mast Diagnostica). To refresh bacterial cells on single glass beads, they were grown overnight in Müller-Hinton (MH) medium, and colonies were obtained by streaking on MH agar. Then, colony cells were used to inoculate MH broth up to OD = 0.02 and grew at 37°C overnight. These overnight cultures were used to inoculate the test culture, which was grown for 3–4 h until it reached exponential growth. HeLa (ECACC 93021013) and HEK293 (ECACC 85120602) cells were purchased from […] and were routinely cultured in Roswell Park Memorial Institute (RPMI) 1640 medium or Dulbecco’s modified Eagle medium (DMEM) supplemented with 10% fetal calf serum (FCS) and 1% penicillin/streptomycin, respectively. Cells were passaged every 2–3 days and used until passage 35. All animal cell types were cultured at 37 °C in a 5% CO2 atmosphere and tested negative for mycoplasma.
(§2) The bacteriostatic activity of the peptides was characterized by determining minimal culture growth inhibitory concentrations (MICs) in planktonic cultures. Serial twofold dilutions of each peptide (in-well concentration range: 128 μg/ml to […]) were prepared in MH broth and aliquoted into round-bottom 96-well microtiter plates (Sarstedt). Each well was inoculated with a standardized inoculum to achieve a final test concentration of approximately 10^6 cells/ml. […] The measurements were repeated twice with three replicates each time.

[2] = system: Escherichia coli (DSM 1116); assay type: cell-based; conditions: DSM 1116, 20 h
Experimental: as §1, §2

[3] = system: human erythrocyte suspension; experiment: Hemolysis assay (hemoglobin release); assay type: cell-based; conditions: Tris-HCl pH 7.6, 37°C, 30 min
Source text: All chemicals were purchased from Sigma-Aldrich, Iris Biotech or Biosolve and were used without further purification. Ultrapure deionized (MilliQ, Millipore) water was used to prepare aqueous solutions and mixtures. Solvents for peptide purification and optical spectroscopy were of HPLC grade and were degassed before use. Culture media and supplements for animal cells were from Thermo Fisher, those for bacterial culturing were from Becton, and those for zebrafish embryo handling were freshly prepared. Citrate phosphate dextrose-stabilized blood bags with erythrocyte suspensions of healthy donors for hemolysis assays were obtained from the blood bank of the Karlsruhe municipal hospital.
Hemolytic activity was examined using the same serial twofold dilution concentrations as for the MIC assay. […] The tubes were centrifuged at 13,000 rpm for 10 min to pellet the cells, and the absorbance at 540 nm was recorded against a negative control (cells without peptide, accounting for autohaemolysis). The lysis percentage was calculated relative to lysis levels induced by 1% (v/v) Triton X-100. The absorbance measurements were repeated five times, and the averaged values were used.

[4] = Analytical C18 HPLC retention time as measure of overall hydrophobicity; assay type: physicochemical; conditions: chromatographic, C18 phase (Vydac), water/acetonitrile with 0.1% TFA, 1% B/min gradient, column 40°C; used to assess overall hydrophobicity
Experimental: The peptides were purified (>95%) by reversed-phase high-performance liquid chromatography (HPLC) employing C18 stationary phase columns (Vydac) and TFA-supplemented (0.1% v/v) water/acetonitrile gradients (4% eluent B/min) without temperature control on a Jasco HPLC system equipped with a diode array detector. Analytical chromatography was performed using the same stationary/mobile phase conditions, employing temperature control (column temperature 40°C) and shallower gradients (1% eluent B/min). All peptides and individual HPLC fractions were characterized by matrix-assisted laser desorption/ionization time-of-flight mass spectrometry (MALDI-TOF MS) using a Bruker Autoflex III instrument in positive reflector detection mode and with α-cyano-4-hydroxycinnamic acid as a matrix. From pure peptide powders, stock solutions were prepared (1 mg/ml) in 30% aqueous acetonitrile and stored at −80°C. For spectroscopy, imaging and bioactivity measurements, aliquots from these solutions were taken a day before the experiment, and peptide samples containing the necessary amount of peptide dry material were obtained by lyophilization overnight.

Structure (SMILES)	MIC B. spizizenii [1] [µM]	MIC E. coli [2] [µM]	death of erythrocytes (hemolysis) ([3]; 30 µM peptide, absorbance 540 nm, relative to 1% Triton X-100, five readings averaged) [%]	hemolytic activity, comparison in words ([3]; human erythrocytes, relative to 1% Triton X-100)	RT (apparent retention time) [4] [min]
N=C(N)NCCC[C@@H]1NC(=O)[C@H](CCCNC(=N)N)NC(=O)[C@H](Cc2c[nH]c3ccccc23)NC(=O)[C@H](Cc2ccc3oc(-c4ccco4)c(O)c(=O)c3c2)NC(=O)[C@H](Cc2c[nH]c3ccccc23)NC(=O)[C@H](CCCNC(=N)N)NC1=O [cRW-F^2/FHC] (cyclo(RRRW[X1]W))	14.0 (≈ 15.9 µg/mL)	28.1 (≈ 32 µg/mL)	> 50	the most hemolytic	
N=C(N)NCCC[C@@H]1NC(=O)[C@H](CCCNC(=N)N)NC(=O)[C@H](Cc2c[nH]c3ccccc23)NC(=O)[C@H](Cc2ccccc2)NC(=O)[C@H](Cc2ccc3oc(-c4ccco4)c(O)c(=O)c3c2)NC(=O)[C@H](CCCNC(=N)N)NC1=O [cRW-W^1/FHC] (cyclo(FWRRR[X1]))	14.6 (≈ 16 µg/mL)	29.1 (≈ 32 µg/mL)			
N=C(N)NCCC[C@@H]1NC(=O)[C@H](CCCNC(=N)N)NC(=O)[C@H](Cc2ccc3oc(-c4ccco4)c(O)c(=O)c3c2)NC(=O)[C@H](Cc2ccccc2)NC(=O)[C@H](Cc2c[nH]c3ccccc23)NC(=O)[C@H](CCCNC(=N)N)NC1=O [cRW-W^3/FHC] (cyclo(F[X1]RRRW))	14.6 (≈ 16 µg/mL)	29.1 (≈ 32 µg/mL)			11
N=C(N)NCCC[C@@H]1NC(=O)[C@H](CCCNC(=N)N)NC(=O)[C@H](Cc2c[nH]c3ccccc23)NC(=O)[C@H](Cc2ccccc2)NC(=O)[C@H](Cc2c[nH]c3ccccc23)NC(=O)[C@H](CCCNC(=N)N)NC1=O [cWFW, cyclo[RRRWFW]] (cyclo(FWRRRW))	4.0 (≈ 3.95 µg/mL)	8.1 (≈ 8 µg/mL)			9
